Usually Ki stands for a dissociation constant, usually derived from enzyme kinetics or from competition with a known ligand. The inhibition is the share of the control response that was lost under treatment.

The results in this text go back to ChEMBL document CHEMBL4428135, “Varying Chirality Across Nicotinic Acetylcholine Receptor Subtypes: Selective Binding of Quinuclidine Triazole Compounds” (ACS Med Chem Lett, 2016).

The species named for assay [1] is Homo sapiens. The assay can be described thus: Selectivity index, reciprocal of ratio of Ki for human alpha7 nAChR transfected in human SH-SY5Y cells to Ki for human alpha3beta4 nAChR transfected in HEK293 cells. Format: cell-based.
For assay [2], the target named is T1, Neuronal acetylcholine receptor; alpha4/beta2 (Homo sapiens, UniProt P17787+P43681). Kind of assay: Displacement of [3H]epibatidine from human alpha4beta2 nAChR transfected in HEK293 cell membranes after 120 mins by liquid scintillation counting. Background: Displacement assays read how much labelled ligand stays bound in the presence of the test substance.

The species named for assay [3] is Homo sapiens. The assay can be described thus: Selectivity index, reciprocal of ratio of Ki for human alpha3beta4 nAChR transfected in HEK293 cells to Ki for human alpha4beta2 nAChR transfected in HEK293 cells. Format: cell-based.
Assay [4] addresses T2, Neuronal acetylcholine receptor; alpha3/beta4 (Homo sapiens, UniProt P30926+P32297). The assay can be described thus: Displacement of [3H]epibatidine from human alpha3beta4 nAChR transfected in HEK293 cell membranes after 120 mins by liquid scintillation counting.
The species named for assay [5] is Homo sapiens. Kind of assay: Selectivity index, reciprocal of ratio of Ki for alpha7 nAChR transfected in human SH-SY5Y cells to KI for human alpha4beta2 nAChR transfected in HEK293 cells. Format: cell-based.
Assay [6] has as its target T3, Neuronal acetylcholine receptor subunit alpha-7 (Homo sapiens, UniProt P36544). Kind of assay: Displacement of [3H]MLA from human alpha7 nAChR transfected in human SH-SY5Y cell membranes after 120 mins by liquid scintillation counting.
Assay [7] addresses T3, Neuronal acetylcholine receptor subunit alpha-7. The assay can be described thus: Agonist activity at human alpha7 nAChR expressed in human SH-SY5Y cells assessed as increase in intracellular calcium levels at 10 uM. Format: cell-based. (In general: Calcium flux is commonly read through the fluorescence of an indicator in the cells.)
The target in assay [8] is T2, Neuronal acetylcholine receptor; alpha3/beta4. Kind of assay: Agonist activity at human alpha3beta4 nAChR expressed in HEK293 cells assessed as increase in intracellular calcium levels at 10 uM. Format: cell-based.
For assay [9], the target named is Serotonin 3 (5-HT3) receptor (Homo sapiens) (UniProt P46098+A5X5Y0+O95264+Q70Z44+Q8WXA8). Kind of assay: Displacement of [3H]BRL-43694 from human recombinant 5-HT3 receptor expressed in CHO cells at 100 nM. Format: cell-based.
Assay [10] deals with Acetylcholine receptor subunit alpha (Homo sapiens) (UniProt P02708). Kind of assay: Displacement of [125I]alpha-bungarotoxin from human N-muscle type nAChR alpha1 expressed in human RD cells at 1 uM. Format: cell-based.
For assay [11], the target named is T1, Neuronal acetylcholine receptor; alpha4/beta2. Kind of assay: Displacement of [3H] epibatidine from alpha4beta2 nAChR (unknown origin) expressed in HEK293 cells. Format: cell-based.
Assay [12] addresses T2, Neuronal acetylcholine receptor; alpha3/beta4. Kind of assay: Displacement of [3H] epibatidine from alpha3beta4 nAChR (unknown origin) expressed in HEK293 cells. Format: cell-based.
Assay [13] concerns the target T3, Neuronal acetylcholine receptor subunit alpha-7. Kind of assay: Displacement of [3H] epibatidine from alpha7 nAChR (unknown origin) expressed in HEK293 cells. Format: cell-based.
Assay [14] shares this target. The assay can be described thus: Displacement of [3H]MLA from human recombinant alpha7 nAChR expressed in HEKtsA201 cells after 1 hr by CNiFERs binding assay. Format: cell-based.
Assay [15] deals with T1, Neuronal acetylcholine receptor; alpha4/beta2. Kind of assay: Displacement of [3H]-(+/-)-epibatidine from human recombinant alpha4beta2 nAChR expressed in HEKtsA201 cells after 1 hr by CNiFERs binding assay. Format: cell-based.
Assay [16] deals with Neuronal acetylcholine receptor subunit alpha-7 (Rattus norvegicus, UniProt Q05941). The assay can be described thus: Displacement of [3H]MLA from alpha7 nAChR in rat brain membranes after 2 hrs. Format: cell membranes.
For assay [17], the target named is T2, Neuronal acetylcholine receptor; alpha3/beta4. The assay can be described thus: Antagonist activity at human alpha3beta4 nAChR expressed in HEK293 cells assessed as rediution in epibatidine-induced intracellular calcium levels at 10 uM. Format: cell-based.
For assay [18], the target named is T3, Neuronal acetylcholine receptor subunit alpha-7. Kind of assay: Displacement of [3H]A-585539 from alpha7 nAChR in human cerebral cortex membranes after 75 mins by scintillation counting. Format: cell membranes.
Assay [19] addresses Neuronal acetylcholine receptor; alpha4/beta2 (Rattus norvegicus, UniProt P09483+P12390). The assay can be described thus: Displacement of [3H]cytisine from alpha4beta2 nAChR in Sprague-Dawley rat brain membranes after 75 mins by scintillation counting. Format: cell membranes.
Assay [20] deals with T3, Neuronal acetylcholine receptor subunit alpha-7. Kind of assay: Binding affinity to alpha7 nAChR (unknown origin).
The target of assay [21] is T1, Neuronal acetylcholine receptor; alpha4/beta2. Kind of assay: Binding affinity to alpha4beta2 nAChR (unknown origin). Format: protein-complex assay.

Active and inactive are the calls of the source. No cut-off for these calls is given here. Bounds are passed on as bounds.

T1 sequence (P17787 whole entry): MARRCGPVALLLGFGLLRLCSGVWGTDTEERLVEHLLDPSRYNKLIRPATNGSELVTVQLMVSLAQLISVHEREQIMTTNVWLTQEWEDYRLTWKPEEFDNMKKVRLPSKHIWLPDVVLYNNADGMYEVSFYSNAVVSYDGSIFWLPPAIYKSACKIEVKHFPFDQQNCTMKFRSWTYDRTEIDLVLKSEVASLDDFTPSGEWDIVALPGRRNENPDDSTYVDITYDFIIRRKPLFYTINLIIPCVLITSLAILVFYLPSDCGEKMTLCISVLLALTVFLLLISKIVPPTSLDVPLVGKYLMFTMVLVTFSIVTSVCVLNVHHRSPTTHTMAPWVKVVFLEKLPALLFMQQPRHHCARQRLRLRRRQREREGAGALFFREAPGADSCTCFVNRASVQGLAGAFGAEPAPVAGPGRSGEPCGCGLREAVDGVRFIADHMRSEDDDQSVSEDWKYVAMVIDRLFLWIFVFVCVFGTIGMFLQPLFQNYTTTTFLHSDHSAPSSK
T1 sequence (P43681 whole entry): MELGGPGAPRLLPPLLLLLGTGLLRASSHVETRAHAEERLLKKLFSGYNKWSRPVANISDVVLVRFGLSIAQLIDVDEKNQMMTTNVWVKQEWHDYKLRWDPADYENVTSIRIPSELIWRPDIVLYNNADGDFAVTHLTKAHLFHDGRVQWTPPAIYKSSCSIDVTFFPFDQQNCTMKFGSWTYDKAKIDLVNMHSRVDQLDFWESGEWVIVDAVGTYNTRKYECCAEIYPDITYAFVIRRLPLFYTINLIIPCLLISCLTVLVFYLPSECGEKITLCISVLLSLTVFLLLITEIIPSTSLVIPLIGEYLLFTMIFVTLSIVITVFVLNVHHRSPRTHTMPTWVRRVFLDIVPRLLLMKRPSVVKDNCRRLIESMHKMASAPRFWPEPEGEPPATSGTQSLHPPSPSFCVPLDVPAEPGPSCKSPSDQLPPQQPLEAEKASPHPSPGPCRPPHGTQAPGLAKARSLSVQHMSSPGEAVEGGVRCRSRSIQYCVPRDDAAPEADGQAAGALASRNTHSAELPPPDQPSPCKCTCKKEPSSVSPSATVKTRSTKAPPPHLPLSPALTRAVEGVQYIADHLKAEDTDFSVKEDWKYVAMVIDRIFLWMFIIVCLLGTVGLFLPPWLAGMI
T2 sequence (P30926 whole entry): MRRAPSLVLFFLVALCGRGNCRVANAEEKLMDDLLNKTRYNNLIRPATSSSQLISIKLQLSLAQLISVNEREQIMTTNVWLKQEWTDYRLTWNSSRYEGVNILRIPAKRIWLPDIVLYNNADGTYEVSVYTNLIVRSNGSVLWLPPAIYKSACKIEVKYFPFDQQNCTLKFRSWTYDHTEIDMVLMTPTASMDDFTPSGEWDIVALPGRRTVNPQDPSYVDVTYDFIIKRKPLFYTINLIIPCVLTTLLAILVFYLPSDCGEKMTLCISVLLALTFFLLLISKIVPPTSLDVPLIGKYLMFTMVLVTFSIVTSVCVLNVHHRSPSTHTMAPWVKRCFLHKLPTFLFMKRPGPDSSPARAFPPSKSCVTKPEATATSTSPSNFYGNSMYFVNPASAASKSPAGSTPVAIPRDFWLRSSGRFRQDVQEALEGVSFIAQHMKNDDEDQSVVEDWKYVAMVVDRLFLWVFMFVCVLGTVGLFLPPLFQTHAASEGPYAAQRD
T2 sequence (P32297 whole entry): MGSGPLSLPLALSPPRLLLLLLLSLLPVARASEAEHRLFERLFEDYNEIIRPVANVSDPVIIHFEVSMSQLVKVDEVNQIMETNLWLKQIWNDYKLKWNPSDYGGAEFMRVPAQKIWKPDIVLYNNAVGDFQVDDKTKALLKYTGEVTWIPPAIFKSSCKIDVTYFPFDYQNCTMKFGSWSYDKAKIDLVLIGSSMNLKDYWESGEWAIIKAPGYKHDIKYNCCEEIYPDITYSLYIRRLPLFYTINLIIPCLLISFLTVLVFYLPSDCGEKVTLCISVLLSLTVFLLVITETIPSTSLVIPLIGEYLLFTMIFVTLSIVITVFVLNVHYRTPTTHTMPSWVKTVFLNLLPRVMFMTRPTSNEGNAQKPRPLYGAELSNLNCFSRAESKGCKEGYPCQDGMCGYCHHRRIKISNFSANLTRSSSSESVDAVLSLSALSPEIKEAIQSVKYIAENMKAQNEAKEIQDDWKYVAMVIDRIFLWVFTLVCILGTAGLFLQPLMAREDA
Chain of Acetylcholine receptor subunit alpha (Homo sapiens) (P02708 whole entry): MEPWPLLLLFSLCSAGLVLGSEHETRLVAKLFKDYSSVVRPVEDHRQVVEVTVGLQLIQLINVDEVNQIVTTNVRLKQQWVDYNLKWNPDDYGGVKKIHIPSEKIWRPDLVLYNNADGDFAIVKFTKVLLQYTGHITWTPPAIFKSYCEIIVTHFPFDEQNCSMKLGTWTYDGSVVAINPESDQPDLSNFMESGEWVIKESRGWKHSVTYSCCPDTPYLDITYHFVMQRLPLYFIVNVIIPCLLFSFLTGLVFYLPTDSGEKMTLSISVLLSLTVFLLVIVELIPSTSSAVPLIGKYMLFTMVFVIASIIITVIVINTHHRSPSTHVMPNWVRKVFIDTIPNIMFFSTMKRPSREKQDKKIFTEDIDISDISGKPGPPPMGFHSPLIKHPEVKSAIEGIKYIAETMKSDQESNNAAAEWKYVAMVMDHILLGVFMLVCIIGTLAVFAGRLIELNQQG
T3 sequence (P36544 whole entry): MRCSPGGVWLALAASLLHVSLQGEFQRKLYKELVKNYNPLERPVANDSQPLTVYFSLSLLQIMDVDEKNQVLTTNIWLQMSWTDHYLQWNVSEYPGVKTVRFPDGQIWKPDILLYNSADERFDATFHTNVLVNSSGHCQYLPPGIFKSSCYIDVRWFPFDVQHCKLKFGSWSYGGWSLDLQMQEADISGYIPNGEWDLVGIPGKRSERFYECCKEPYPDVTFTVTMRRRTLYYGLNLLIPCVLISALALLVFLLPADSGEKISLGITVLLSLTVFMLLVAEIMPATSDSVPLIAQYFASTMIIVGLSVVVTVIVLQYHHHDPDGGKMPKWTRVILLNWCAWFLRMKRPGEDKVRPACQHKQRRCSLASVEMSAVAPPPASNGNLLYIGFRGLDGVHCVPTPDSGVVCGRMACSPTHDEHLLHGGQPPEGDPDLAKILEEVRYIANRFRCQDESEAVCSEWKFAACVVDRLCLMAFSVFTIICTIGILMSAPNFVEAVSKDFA
Chain of Neuronal acetylcholine receptor subunit alpha-7 (Rattus norvegicus, UniProt Q05941) (Q05941 whole entry): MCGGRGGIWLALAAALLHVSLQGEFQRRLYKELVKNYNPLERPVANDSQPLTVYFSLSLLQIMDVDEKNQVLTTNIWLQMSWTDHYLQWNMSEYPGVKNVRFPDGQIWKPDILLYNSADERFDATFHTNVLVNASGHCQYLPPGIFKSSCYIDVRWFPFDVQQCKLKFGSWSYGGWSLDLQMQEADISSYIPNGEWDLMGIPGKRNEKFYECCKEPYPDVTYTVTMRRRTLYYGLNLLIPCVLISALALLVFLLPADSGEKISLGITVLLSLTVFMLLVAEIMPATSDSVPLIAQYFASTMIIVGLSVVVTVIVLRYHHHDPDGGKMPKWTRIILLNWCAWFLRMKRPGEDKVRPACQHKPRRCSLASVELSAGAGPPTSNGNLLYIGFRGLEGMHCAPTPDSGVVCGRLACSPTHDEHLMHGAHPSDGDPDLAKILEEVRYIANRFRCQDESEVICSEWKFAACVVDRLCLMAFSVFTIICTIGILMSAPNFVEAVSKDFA
Chain of Neuronal acetylcholine receptor; alpha4/beta2 (Rattus norvegicus, UniProt P09483+P12390) (P09483 whole entry): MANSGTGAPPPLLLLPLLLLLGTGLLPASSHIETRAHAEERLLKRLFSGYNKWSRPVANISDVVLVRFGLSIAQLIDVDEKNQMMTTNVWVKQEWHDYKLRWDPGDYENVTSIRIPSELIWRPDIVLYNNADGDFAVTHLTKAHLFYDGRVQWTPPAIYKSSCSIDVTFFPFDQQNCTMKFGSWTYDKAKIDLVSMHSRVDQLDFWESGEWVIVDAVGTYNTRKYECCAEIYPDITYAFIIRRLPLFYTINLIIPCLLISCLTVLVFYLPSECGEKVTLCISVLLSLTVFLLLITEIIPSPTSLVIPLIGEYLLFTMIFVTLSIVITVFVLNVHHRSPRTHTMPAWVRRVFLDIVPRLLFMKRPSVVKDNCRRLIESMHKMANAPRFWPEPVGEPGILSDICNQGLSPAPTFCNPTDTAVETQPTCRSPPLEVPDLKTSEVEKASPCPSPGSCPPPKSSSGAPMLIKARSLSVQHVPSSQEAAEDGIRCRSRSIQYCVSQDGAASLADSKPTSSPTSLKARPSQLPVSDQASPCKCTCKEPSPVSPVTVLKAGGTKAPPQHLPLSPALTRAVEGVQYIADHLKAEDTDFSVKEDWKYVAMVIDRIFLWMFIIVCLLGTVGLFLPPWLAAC
Chain of Neuronal acetylcholine receptor; alpha4/beta2 (Rattus norvegicus, UniProt P09483+P12390) (P12390 whole entry): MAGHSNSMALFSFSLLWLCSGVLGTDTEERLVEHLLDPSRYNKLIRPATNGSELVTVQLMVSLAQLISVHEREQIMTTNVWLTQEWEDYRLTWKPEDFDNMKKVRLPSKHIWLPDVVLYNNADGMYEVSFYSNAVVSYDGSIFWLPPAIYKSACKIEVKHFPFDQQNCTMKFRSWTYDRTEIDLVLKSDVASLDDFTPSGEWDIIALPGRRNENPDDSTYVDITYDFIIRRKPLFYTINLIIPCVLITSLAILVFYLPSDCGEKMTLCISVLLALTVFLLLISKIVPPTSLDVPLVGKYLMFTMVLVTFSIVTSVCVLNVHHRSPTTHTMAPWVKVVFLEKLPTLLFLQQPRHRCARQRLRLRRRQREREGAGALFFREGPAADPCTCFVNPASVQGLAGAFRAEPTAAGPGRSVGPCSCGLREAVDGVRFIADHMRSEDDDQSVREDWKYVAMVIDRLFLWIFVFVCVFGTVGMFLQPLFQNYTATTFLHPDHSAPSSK

In the case of `c1ccc(COc2cccc(-c3cn([C@H]4CN5CCC4CC5)nn3)c2)cc1`, the results for the Ratio in the assay filed under Homo sapiens [1], in the assay listed under Homo sapiens [3] and in the assay listed under Homo sapiens [5] were 28, 8 and 225, respectively. Moreover, the inhibition constant Ki in assay [2] was 5.06 µM; in assay [4], 0.631 µM; in [6], 0.0225 µM.
For the compound `Fc1ccc(-c2cn(C3CN4CCC3CC4)nn2)cc1` (racemic), the Ki in assay [2] came to 0.449 µM; in assay [4], 0.0085 µM; in [6] it was 0.0728 µM. The Ratio was determined as 53 in the assay filed under Homo sapiens [3] and 6.2 in the assay filed under Homo sapiens [5].
Regarding `Fc1cccc(-c2cn([C@H]3CN4CCC3CC4)nn2)c1`, the Ratio in the assay listed under Homo sapiens [1] came out at 3.1; in the assay filed under Homo sapiens [3], 14; in the assay listed under Homo sapiens [5] it was 44. For the same compound, the Ki was 5.2 µM in assay [2], 0.362 µM in [4] and 0.117 µM in [6]. Also, the result in assay [7] and in [8] was Active.
Take `c1ccc(COc2cccc(-c3cn([C@@H]4CN5CCC4CC5)nn3)c2)cc1`: the inhibitory constant (Ki) was 0.414 µM in [2], 0.00667 µM in [4] and 0.279 µM in [6]. The Ratio came to 62 in the assay listed under Homo sapiens [3] and 1.5 in the assay filed under Homo sapiens [5]. The inhibition entry in assay [9] was “inactive”. Also, the inhibition in assay [10] lay in the range of 2 to 12%.
In the case of `FCCCOc1cccc(-c2cn([C@@H]3CN4CCC3CC4)nn2)c1`, the Ki in [2] worked out at 1.98 µM; in assay [4], 0.0195 µM; in [6], 0.0969 µM. Besides, the Ratio in the assay filed under Homo sapiens [3] came out at 102; in the assay listed under Homo sapiens [5] it was 20.
With `FC(F)(F)c1ccc2c(c1)[C@@H]1CNC[C@H]2C1`, the Ki in assay [11] was 0.021 µM; in assay [12], 0.021 µM; in [13], more than 0.3 µM.
For `FCCOc1cccc(-c2cn(C3CN4CCC3CC4)nn2)c1` (racemic), the inhibition constant Ki in [2] turned out to be 1.96 µM; in [4], 0.0209 µM; in assay [6], 0.0987 µM. Moreover, the figures for the Ratio in the assay filed under Homo sapiens [3] and in the assay filed under Homo sapiens [5] were 94 and 20, respectively.
For the compound `Oc1ccc(-c2cn(C3CN4CCC3CC4)nn2)cc1` (racemic), the Ki in assay [2] was 0.627 µM; in [14] it was 0.081 µM; in assay [4] it was 0.00344 µM; in [15], more than 10 µM; in [6], 0.00961 µM. In addition, the Ratio came out at 182 in the assay filed under Homo sapiens [3] and 65 in the assay listed under Homo sapiens [5].
Turning to `Oc1ccc(-c2cn([C@@H]3CN4CCC3CC4)nn2)cc1`, the figures for the Ki in assay [2], in assay [4] and in assay [6] were 0.461 µM, 0.00248 µM and 0.0293 µM, respectively. The Ratio amounted to 186 in the assay listed under Homo sapiens [3] and 16 in the assay filed under Homo sapiens [5].
The compound `O=C(N[C@H]1CN2CCC1CC2)c1c[nH]c2ccccc12` showed a Ki in [16] of 0.006 µM.
As to `Fc1ccc(-c2cn([C@H]3CN4CCC3CC4)nn2)cc1`, the results for the Ratio in the assay listed under Homo sapiens [1], in the assay filed under Homo sapiens [3] and in the assay filed under Homo sapiens [5] were 14, 10 and 143, respectively. Also, the results for the Ki in assay [2], in [4] and in assay [6] were 10.4 µM, 1.01 µM and 0.073 µM, respectively. Further, in assay [17], the inhibition result was “Active”. Also, the result in [7] was Active.
`Fc1ccc(COc2cccc(-c3cn([C@@H]4CN5CCC4CC5)nn3)c2)cc1`: the results for the Ki in assay [2], in assay [4] and in assay [6] were 0.537 µM, 0.00717 µM and 0.149 µM, respectively. In addition, the Ratio in the assay filed under Homo sapiens [3] came to 75; in the assay listed under Homo sapiens [5], 3.6. For the same compound, in [9], the inhibition result is “Active”. Further, the inhibition in [10] was in the range of 2 to 12%.
Consider `c1cc2cc(-c3ccc(O[C@H]4CN5CCC4CC5)nn3)ccc2[nH]1` [ABT-107], for which the Ki was 0.00022 µM in [18] and 4 µM in assay [19].
For the compound `Oc1ccc(-c2cn([C@H]3CN4CCC3CC4)nn2)cc1`, the Ratio in the assay filed under Homo sapiens [1] was 12.7; in the assay filed under Homo sapiens [3] it was 54; in the assay listed under Homo sapiens [5] it was 678. Further, the Ki worked out at 7.39 µM in [2], 0.138 µM in [4] and 0.0109 µM in assay [6].
`Fc1ccc(COc2cccc(-c3cn([C@H]4CN5CCC4CC5)nn3)c2)cc1`: the Ratio in the assay listed under Homo sapiens [1] is 33; in the assay filed under Homo sapiens [3] it was 5.9; in the assay listed under Homo sapiens [5] it was 193. Besides, the inhibition constant (Ki) was determined as 6.39 µM in assay [2], 1.09 µM in [4] and 0.0332 µM in assay [6].
For `c1ccc(COc2cccc(-c3cn(C4CN5CCC4CC5)nn3)c2)cc1` (racemic), the Ki in assay [2] was determined as 0.668 µM; in assay [4], 0.00757 µM; in assay [6], 0.0913 µM. In addition, the Ratio in the assay listed under Homo sapiens [3] turned out to be 88; in the assay listed under Homo sapiens [5] it was 7.3.
For `FCCCOc1cccc(-c2cn([C@H]3CN4CCC3CC4)nn2)c1`, the Ratio amounted to 26 in the assay listed under Homo sapiens [1], 5.5 in the assay filed under Homo sapiens [3] and 145 in the assay listed under Homo sapiens [5]. The Ki in [2] was determined as 9.01 µM; in [4], 1.63 µM; in assay [6] it was 0.0623 µM.
As for `CN1C2CCCC1CC(Nc1ccccc1Br)C2` (configuration not stated), the results for the Ki in [20] and in assay [21] were 0.221 µM and 0.476 µM, respectively.
Take `Fc1ccc(COc2cccc(-c3cn(C4CN5CCC4CC5)nn3)c2)cc1` (racemic): the Ki was 1.01 µM in assay [2], 0.0139 µM in assay [4] and 0.127 µM in assay [6]. In addition, the results for the Ratio in the assay listed under Homo sapiens [3] and in the assay filed under Homo sapiens [5] were 73 and 8, respectively.
For the compound `FCCOc1cccc(-c2cn([C@H]3CN4CCC3CC4)nn2)c1`, the figures for the Ratio in the assay filed under Homo sapiens [1], in the assay listed under Homo sapiens [3] and in the assay filed under Homo sapiens [5] were 14, 13 and 182, respectively. Besides, the Ki in assay [2] amounted to 7.05 µM; in [4] it was 0.558 µM; in [6], 0.0388 µM.
Take `Fc1cccc(-c2cn(C3CN4CCC3CC4)nn2)c1` (racemic): the Ki in [2] turned out to be 0.748 µM; in [4], 0.00524 µM; in assay [6] it was 0.133 µM. The figures for the Ratio in the assay filed under Homo sapiens [3] and in the assay listed under Homo sapiens [5] were 143 and 5.6, respectively.
As to `FCCCOc1cccc(-c2cn(C3CN4CCC3CC4)nn2)c1` (racemic), the inhibition constant (Ki) in assay [2] worked out at 3.89 µM; in assay [4], 0.0444 µM; in assay [6], 0.0746 µM. For the same compound, the Ratio in the assay filed under Homo sapiens [3] was found to be 88; in the assay listed under Homo sapiens [5] it was 52.
The like results for `FCCOc1cccc(-c2cn([C@@H]3CN4CCC3CC4)nn2)c1` were, in that order, 1.26 µM, 0.0118 µM, 0.0749 µM, 107 and 17.
Take `Fc1cccc(-c2cn([C@@H]3CN4CCC3CC4)nn2)c1`: the results for the Ki in [2], in assay [4] and in assay [6] were 0.519 µM, 0.00225 µM and 0.66 µM, respectively. Further, in assay [17], the inhibition result was “Active”. Further, the result in assay [7] was Active. Also, the Ratio in the assay filed under Homo sapiens [3] worked out at 231. Moreover, the inhibition result in [9] is “inactive”. Also, the inhibition in [10] lay in the range of 2 to 12%.
`Fc1ccc(-c2cn([C@@H]3CN4CCC3CC4)nn2)cc1`: the inhibitory constant (Ki) was 0.515 µM in [2], 0.00309 µM in assay [4] and 0.175 µM in assay [6]. For the same compound, the outcome in assay [7] and in assay [8] was Active. The results for the Ratio in the assay filed under Homo sapiens [3] and in the assay listed under Homo sapiens [5] were 167 and 3, respectively. In assay [9], the inhibition entry is “inactive”. The same compound came in with an inhibition in assay [10] of 2 to 12%.
